Source: publication PMC9112550, “Optimization of the antimicrobial peptide Bac7 by deep mutational scanning” (BMC Biology, 2022)
≈ marks a conversion by molar mass, not a printed value.

Legend:
E. coli TOP10 [1] = type: cell-based; settings: data not shown
Experimental: Bacterial cells were grown in cation-adjusted Mueller Hinton Broth (MHB II) overnight to stationary phase. The cultures were then supplemented with 200 g l^−1 glycerol, aliquoted, and frozen at −80°C. […] The purified peptides were thawed and the concentration was determined by RP-HPLC as described before. The peptides were diluted with sterile water to 4-fold the desired assays starting concentration and to a final volume of 50 μl. […] The first well of each MIC dilution series was filled with 20 μl of 2-fold concentrated MHB II, wells 2–11 with 20 μl of MHB II, and well 12 with 40 μl MHB II (sterility control). Next, 20 μl of the peptide dilution was added to the first well, mixed, and a log2-serial dilution was performed from wells 1 to 10 (20 μl transfer volume). Well 11 served as growth control (i.e., no peptide added). In the last step, 20 μl of the bacterial cell suspension was added to wells 1–11 either using the pipetting robot (E. coli TOP10, BW25113, BW25113 ΔsbmA, and ATCC 25922) or by manual pipetting (E. coli clinical isolates). The plates were sealed airtight and incubated for 18 h without shaking at 37°C before reading the OD using an Infinite 200 PRO plate reader (Tecan, Männedorf, CH). […] All MIC experiments were determined in technical replicate.

E. coli TOP10 [2] = assay: Membrane damage assay in MHB II (GFP loss, PI uptake); type: cell-based; settings: at its MIC

## CC[C@H](C)[C@H](NC(=O)CN)C(=O)NCC(=O)N[C@@H](C)C(=O)N[C@H](C(=O)N[C@@H](CC(C)C)C(=O)N[C@@H](CCCCN)C(=O)N[C@H](C(=O)N[C@@H](CC(C)C)C(=O)N[C@H](C(=O)N[C@H](C(=O)NCC(=O)N[C@@H](CC(C)C)C(=O)N1CCC[C@H]1C(=O)N[C@@H](C)C(=O)N[C@@H](CC(C)C)C(=O)N[C@H](C(=O)N[C@@H](CO)C(=O)N[C@@H](Cc1c[nH]c2ccccc12)C(=O)N[C@H](C(=O)N[C@@H](CCCCN)C(=O)N[C@@H](CCCNC(=N)N)C(=O)N[C@@H](CCCCN)C(=O)N[C@@H](CCCNC(=N)N)C(=O)N[C@@H](CCC(N)=O)C(=O)N[C@@H](CCC(N)=O)C(N)=O)[C@@H](C)CC)[C@@H](C)CC)[C@@H](C)O)[C@@H](C)O)C(C)C)C(C)C [melittin]
E. coli TOP10 [1]
  MIC: 5.0 µM (≈ 14.2 µg/mL)
E. coli TOP10 [2]
  PI uptake and loss of GFP: rapidly induced PI uptake and loss of GFP
